This note sets out measurements from paper PMC7671598, “Differences in the efficiency of 3-deazathiamine and oxythiamine pyrophosphates as inhibitors of pyruvate dehydrogenase complex and growth of HeLa cells in vitro” (Journal of Enzyme Inhibition and Medicinal Chemistry, 2020).

The target in this assay is T1, pyruvate dehydrogenase complex (PDHC).
T1 construct: gene PDHA1; native mitochondrial complex isolated from porcine heart; with PDHB (E1 beta) and the other subunits of the complex
The assay can be described thus: spectrophotometric PDHC kinetics at […] nm, Lineweaver-Burk, Ki from the shift of Km for TPP. The class given is biochemical, Sus scrofa. Particulars: read-out: Kinetic parameters / Ki.

`Cc1ncc(C[n+]2csc(CCOP(=O)(O)OP(=O)(O)O)c2C)c(O)n1` [compound 18, oxythiamine pyrophosphate]: the Ki stood at 25 ± 15 nM.
The result for `Cc1ncc(Cc2csc(CCOP(=O)(O)OP(=O)(O)O)c2C)c(N)n1` [compound 15, 3-deazathiamine pyrophosphate] reads 2.6 ± 0.9 nM.
